According to ChEMBL document CHEMBL3880436, “Pharmaceutical composition containing optically active compound having thrombopoietin receptor agonist activity, and intermediate therefor” (2013):
Calls of active or inactive are those of the source. The rule behind the calls is not given here.

Assays:
[1] = target: T1, Thrombopoietin receptor (Homo sapiens) (UniProt P40238); assay: Agonist activity at human TPO receptor expressed in mouse BaF-B03 cells assessed as induction of cell proliferation after 20 hrs by WST-1 assay; type: cell-based
T1 sequence (whole entry): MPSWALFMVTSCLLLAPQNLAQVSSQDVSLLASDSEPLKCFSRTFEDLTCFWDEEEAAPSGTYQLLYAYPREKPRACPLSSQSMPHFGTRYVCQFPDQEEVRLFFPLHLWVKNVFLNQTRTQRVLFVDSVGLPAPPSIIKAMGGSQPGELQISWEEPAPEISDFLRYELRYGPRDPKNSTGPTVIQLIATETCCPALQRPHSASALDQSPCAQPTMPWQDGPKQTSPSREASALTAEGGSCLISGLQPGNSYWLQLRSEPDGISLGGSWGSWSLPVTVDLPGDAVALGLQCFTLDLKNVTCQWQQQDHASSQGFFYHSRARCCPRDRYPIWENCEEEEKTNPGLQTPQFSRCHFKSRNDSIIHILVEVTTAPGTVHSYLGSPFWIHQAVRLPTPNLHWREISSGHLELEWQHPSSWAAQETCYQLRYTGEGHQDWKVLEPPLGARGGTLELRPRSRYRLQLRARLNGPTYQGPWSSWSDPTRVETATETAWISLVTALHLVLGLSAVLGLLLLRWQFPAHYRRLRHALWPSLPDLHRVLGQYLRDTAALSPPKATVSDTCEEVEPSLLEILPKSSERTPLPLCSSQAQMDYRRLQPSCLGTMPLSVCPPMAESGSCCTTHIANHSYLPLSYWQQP

[2] = test system: Mus musculus; assay: Increase in platelet levels in mouse expressing human transmembrane site of TPO receptor administered as po bid for 2 weeks measured after 3 days to 3 weeks post initiation of initial dose relative to vehicle-treated control; type: functional, organism-based

**Q.** With `CCCCCCO[C@H](C)c1cccc(-c2csc(NC(=O)c3cc(Cl)c(/C=C(\C)C(=O)O)c(Cl)c3)n2)c1OC` as the molecule, how does the ED50 [1] read?
**A.** 1.4 nM

**Q.** What about the Activity [2] of the same molecule?
**A.** Active

**Q.** Which results are given for `CCCCCCO[C@@H](C)c1cccc(-c2csc(NC(=O)c3cc(Cl)c(/C=C(\C)C(=O)O)c(Cl)c3)n2)c1OC`?
**A.** ED50 [1]: 1.09 nM; Activity [2]: Active

**Q.** For `CCCO[C@H](c1cccc(-c2csc(NC(=O)c3cc(Cl)c(/C=C(\C)C(=O)O)c(Cl)c3)n2)c1OC)C(C)(C)C`, which Activity [2] is on record?
**A.** Active

**Q.** Which results are given for `CCCCCC[C@@H](OC)c1cccc(-c2csc(NC(=O)c3cc(Cl)c(/C=C(\C)C(=O)O)c(Cl)c3)n2)c1OC`?
**A.** ED50 [1]: 3.09 nM; Activity [2]: Active

**Q.** `CCCCCC[C@H](OC)c1cccc(-c2csc(NC(=O)c3cc(Cl)c(/C=C(\C)C(=O)O)c(Cl)c3)n2)c1OC` was tested. Which ED50 [1] did it give?
**A.** 2.08 nM

**Q.** And the Activity [2]?
**A.** Active
